Patent US9295735B2, “Liposomal composition for convection-enhanced delivery to the central nervous centre” (MEDGENESIS THERAPEUTIX, INC., priority 2008, dated 2016)
Like-named read-outs stand apart in the source and are kept apart here.

Assays:
[1] = test system: various malignant glioma cells lines; conditions: read-out: 50% inhibitory concentration (IC50), cited from earlier work
[2] = Brain tissue pharmacokinetics of Ls-TPT formulations and free topotecan after intracerebral CED (HPLC of total topotecan); assay type: in vivo, Sprague-Dawley rats
Experimental: The experiments in this example were performed with research grade material of both liposomal-topotecan (Ls-TPT) and liposomal gadodiamide (Ls-GD). Topotecan (TPT) for free topotecan formulation and for Ls-TPT preparation was obtained from Hisun Pharmaceuticals (Taizhou City, Zhejiang, China). Ls-TPT was provided by Northern Lipids Inc (Burnaby, BC, Canada). In brief, liposomes were composed of distearoylphosphatidylcholine (DSPC), distearoylphosphatidylglycerol (DSPG), and cholesterol at a 7:2:1 molar ratio with 75 to 90 nm target size. Topotecan was remotely loaded (actively encapsulated) into liposomes in response to a transmembrane pH gradient using internal and external buffers consisting of ammonium sulfate 250 mM pH 5.5 and histidine 5 mM/NaCl 145 mM pH 6.0 respectively. Topotecan concentrations of 0.67 and 2.0 mg/mL with a 0.1 and 0.3 (w/w) drug:lipid ratio were respectively targeted assuming a 90-95% drug encapsulation efficiency. A constant total lipid concentration target of 6.7 mg/mL was maintained in both formulations. The manufacturing process is described in details in Example 2.1.2.
For the formulation screening component of this example, the animals were divided in 4 groups based on Ls-TPT formulations or free topotecan as outlined in Table 1.
Rats were anesthetized with either isoflurane (5% for induction; 2.5 to 3.0% for maintenance during surgery) inhalation or a combination of ketamine (60 mg/kg) and xylazine (8 mg/kg) via an intraperitoneal injection. […] Craniectomy was performed using a small electric dental drill with 1-mm diameter burr holes, 0.5 mm anterior and 3 mm left and right from the bregma. […] The test article was injected bilaterally at one site into each striatum.
The brains were removed, placed on ice and the striata dissected using a dorsal approach and the tissue frozen in liquid nitrogen. The tissue was subsequently homogenized with an equal volume of water (1:1 v/v) and then extracted with methanol and stored at −70° C. until shipment to the Sponsor. Tail vein blood was collected (1.0 mL) for the formulation tissue and plasma pharmacokinetics component of this Example.
High performance liquid chromatography (HPLC) of total topotecan (free and liposome-encapsulated) in brain tissue and in plasma was performed by Northern Lipids Inc. (Burnaby, BC, Canada) using an isocratic reversed phase HPLC/UV method. Method details were as follows. Briefly, the animals (n=3) were sacrificed at 1 and 6 hours, 2, 4 and 7 days. The brains were removed, placed on ice, the striata dissected using a dorsal approach and the tissue frozen in liquid nitrogen. Equal volume of ice cold water (1:1 w/w) was added and the thawed tissue was homogenized (Biospec) mechanically for 2 minutes and frozen.

[3] = normal rat brain tissue after CED, non-compartmental analysis

concentration at 1 h ([2]; Sprague-Dawley, brain (striatum), normal rat striatum, CED 20 μL per hemisphere, TPT 0.5 mg/mL, 1 hour, read-out: Topotecan brain tissue concentration, Mean ± STD): 44.3 ± 39.4 µM
concentration at 6 h ([2]; Sprague-Dawley, brain (striatum), normal rat striatum, CED 20 μL per hemisphere, TPT 0.5 mg/mL, 6 hours, read-out: Topotecan brain tissue concentration, Mean ± STD): 15.6 ± 13.8 µM
concentration at 48 h ([2]; Sprague-Dawley, brain (striatum), normal rat striatum, CED 20 μL per hemisphere, TPT 0.5 mg/mL, 48 hours, read-out: Topotecan brain tissue concentration, Mean ± STD): 0 µM
concentration at 96 h ([2]; Sprague-Dawley, brain (striatum), normal rat striatum, CED 20 μL per hemisphere, TPT 0.5 mg/mL, 96 hours, read-out: Topotecan brain tissue concentration, Mean ± STD): 0 µM
concentration at 168 h ([2]; Sprague-Dawley, brain (striatum), normal rat striatum, CED 20 μL per hemisphere, TPT 0.5 mg/mL, 168 hours, read-out: Topotecan brain tissue concentration, Mean ± STD): 0 µM
AUC(0-last) [2, 3]: 5.5 µg·days/g
t1/2 [2, 3]: much shorter
Topotecan brain tissue concentration, Mean ± STD ([2]; normal rat striatum, CED 20 μL per hemisphere, TPT 0.5 mg/mL, 1 hour): 0.0203 ± 0.0181 mg/g of brain tissue
Topotecan brain tissue concentration, Mean ± STD ([2]; normal rat striatum, CED 20 μL per hemisphere, TPT 0.5 mg/mL, 6 hours): 0.0071 ± 0.0063 mg/g of brain tissue
Topotecan brain tissue concentration, Mean ± STD ([2]; normal rat striatum, CED 20 μL per hemisphere, TPT 0.5 mg/mL, 48 hours): 0 mg/g of brain tissue
Topotecan brain tissue concentration, Mean ± STD ([2]; normal rat striatum, CED 20 μL per hemisphere, TPT 0.5 mg/mL, 96 hours): 0 mg/g of brain tissue
Topotecan brain tissue concentration, Mean ± STD ([2]; normal rat striatum, CED 20 μL per hemisphere, TPT 0.5 mg/mL, 168 hours): 0 mg/g of brain tissue
SMILES: CC[C@@]1(O)C(=O)OCc2c1cc1n(c2=O)Cc2cc3c(CN(C)C)c(O)ccc3nc2-1 [Formulation F4, topotecan]
IC50 ([1]; exposure over 1 hour): 2.4 µM
IC50 ([1]; exposure over 24 hours): 0.038 µM
IC50 ([1]; exposure over 72 hours): 0.28 µM
IC50 ([1]; exposure over 120 hours): ≥ 0.02 µM
